Converted amounts (≈) assume the structure as drawn. The source made the active and inactive calls. The rule behind the calls is not given here.
How the values were obtained:
[1] = tested on: CHO; test: Cytotoxicity against CHO cells after 48 hrs; format: cell-based, Cricetulus griseus; conditions: chinese hamster
[2] = tested on: Human alphaherpesvirus 2; test: Antiviral activity against HSV2 infected in human HeP2 ells; format: functional
[3] = tested on: Vero; test: Cytotoxicity against african green monkey Vero cells by EPTT method; format: cell-based; conditions: chlorocebus sabaeus
[4] = Cytotoxicity against bovine Bon-Fib cells after 48 hrs; format: cell-based, Bos taurus; conditions: cattle
[5] = Cytotoxicity against pig PS cells; format: cell-based, Sus scrofa; conditions: read-out: ED50 (the source's name)
[6] = Cytotoxicity against bovine Bon-Fib cells after 48 hrs by MTT assay; format: cell-based, Bos taurus; conditions: cattle
[7] = tested on: HEp-2; test: Cytotoxicity against human Hep2 cells after 48 hrs by MTT assay; format: functional; conditions: HEp-2, 48 h
[8] = tested on: HeLa; test: Cytotoxicity against human HeLa cells after 48 hrs by MTT assay; format: functional
[9] = Cytotoxicity against CHO cells after 48 hrs by MTT assay; format: cell-based, Cricetulus griseus; conditions: chinese hamster
[10] = tested on: HEp-2; test: Cytotoxicity against human Hep2 cells after 48 hrs; format: functional
[11] = tested on: HeLa; test: Cytotoxicity against human HeLa cells after 48 hrs; format: functional
[12] = tested on: P388; test: Antitumor activity against mouse P388 cells; format: functional, cell-based
[13] = tested on: Human alphaherpesvirus 1; test: Antiviral activity against HSV1 infected in mouse P388 cells; format: functional, organism-based; conditions: Human alphaherpesvirus 1, P388
[14] = tested on: KB; test: Cytotoxicity against human KB cells; format: functional, cell-based
[15] = tested on: L1210; test: Cytotoxicity against mouse L1210 cells; format: functional, cell-based

SMILES | CC100 [1] [µg/mL] | Activity [2] | CC100 [3] [µg/mL] | CC100 [4] [µg/mL] | CC50 at 48 h [6] [µg/mL] | CC50 [7] [µg/mL] | CC50 [8] [µg/mL] | CC50 at 48 h [9] [µg/mL] | other results
CC1(C)C(=O)CC[C@]2(C)[C@H]3CCc4cocc4[C@]3(C)CC[C@@H]12 | 30 | inactive | 28 | 40 |  |  |  |  | 
CC1(C)CCC[C@]2(C)[C@H]3CC=C4C(=O)OC[C@H]4[C@]3(C)CC[C@@H]12 [ISOAGATHOLACTONE] |  | inactive | 40 |  |  |  |  |  | 
CC1(C)CCC[C@]2(C)[C@H]3CC[C@H]4C(=O)OC5OC[C@H]4[C@@]53CC[C@@H]12 |  | 29 µg/mL | 58 |  |  |  |  |  | 
CCCC(=O)O[C@@H]1C[C@H]2C(C)(C)CCC[C@]2(C)[C@H]2CC[C@H]3C(=O)O[C@H]4O[C@@H](O)[C@]21[C@H]43 |  |  |  |  |  |  |  |  | CC50 [5]: 6.5 µg/mL (≈ 15.5 µM)
CC[C@]1(O)C[C@H]2CN(CCc3c([nH]c4ccccc34)[C@@](C(=O)OC)(c3cc4c(cc3OC)N(C=O)[C@H]3[C@@](O)(C(=O)OC)[C@H](OC(C)=O)[C@]5(CC)C=CCN6CC[C@]43[C@@H]65)C2)C1 [VINCRISTINE] |  |  |  |  | 0.61 (≈ 0.739 µM) | 0.05 (≈ 0.0606 µM) | 0.05 (≈ 0.0606 µM) | 1.15 (≈ 1.39 µM) | 
CC(=O)O[C@H]1OC(=O)[C@@H]2CC[C@@H]3[C@@]4(C)CCCC(C)(C)[C@@H]4CC[C@@]3(C=O)[C@H]12 | 24 | 4.5 µg/mL | 9 | 24 | 18.3 (≈ 48.6 µM) | 4.43 (≈ 11.8 µM) | 6.27 (≈ 16.7 µM) | 4.96 (≈ 13.2 µM) | CC100 [10]: 12 µg/mL; CC100 [11]: 12 µg/mL
C[C@]12CC(=O)[C@H](O)[C@](C)(CO)[C@@H]1CC[C@@]1(C)c3cocc3CC[C@H]21 [EPISPONGIADIOL] |  |  |  |  |  |  |  |  | IC50 [12]: 8 µg/mL (≈ 24.1 µM); IC50 [13]: 12.5 µg/mL (≈ 37.6 µM)
CC1(C)CCC[C@]2(C)[C@H]3CC[C@H]4C(=O)OC[C@]3(CC[C@@H]12)[C@@H]4CO |  | 18.7 µg/mL | 37.5 |  |  |  |  |  | 
CC1(C)CCC[C@]2(C)[C@H]3CCc4cocc4[C@]3(C)CC[C@@H]12 |  | 60 µg/mL | 120 |  |  |  |  |  | 
CC1(C)CCC[C@]2(C)[C@H]3CC[C@@]4(O)C(=O)OC[C@H]4[C@]3(C)CC[C@@H]12 |  | 25 µg/mL | 50 |  |  |  |  |  | 
CC1(C)CCC[C@]2(C)[C@H]3CC[C@]4(O)C(=O)OC[C@H]4[C@]3(C)CC[C@@H]12 |  | 28 µg/mL | 56 |  |  |  |  |  | 
CC(=O)OC[C@@H]1[C@H]2CC[C@@H]3[C@@]4(C)CCCC(C)(C)[C@@H]4CC[C@@]13COC2=O | 36 | 14 µg/mL | 28 | 36 | 15.9 (≈ 43.8 µM) | 10.1 (≈ 27.7 µM) | 16.5 (≈ 45.5 µM) | 21.5 (≈ 59.4 µM) | CC100 [11]: 18 µg/mL
CC1(C)CCC[C@]2(C)[C@H]3CC[C@H]4C(=O)OC[C@H]4[C@]3(C=O)CC[C@@H]12 | 20 | 14 µg/mL | 28 | 40 | 19 (≈ 59.6 µM) | 9.56 (≈ 30 µM) | 14.2 (≈ 44.5 µM) | 13.2 (≈ 41.3 µM) | 
CO[C@@H]1OC2OC(=O)[C@@H]3CC[C@@H]4[C@@]5(C)CCCC(C)(C)[C@@H]5CC[C@]14[C@H]23 (stereo partly drawn) |  | 60 µg/mL | 120 |  |  |  |  |  | 
CC1(C)CCC[C@]2(C)[C@H]3CC[C@H]4C(=O)OC5O[C@@H](O)[C@]3(CC[C@@H]12)[C@H]54 (stereo partly drawn) [DENDRILLOL- 1] | 13 | inactive | 8 | 13 | 18.9 (≈ 56.4 µM) | 3.46 (≈ 10.3 µM) | 14.8 (≈ 44.3 µM) | 5.1 (≈ 15.2 µM) | 
CC(=O)O[C@@H]1OC2OC(=O)[C@@H]3CC[C@@H]4[C@@]5(C)CCCC(C)(C)[C@@H]5CC[C@]14[C@H]23 (stereo partly drawn) |  | 120 µg/mL | > 120 |  |  |  |  |  | 
C[C@]12C[C@@H](O)C(=O)[C@](C)(CO)[C@@H]1CC[C@@]1(C)c3cocc3CC[C@H]21 [ISOSPONGIADIOL] |  |  |  |  |  |  |  |  | IC50 [12]: 5 µg/mL (≈ 15 µM); IC50 [13]: 2 µg/mL (≈ 6.02 µM)
C[C@]12CC(=O)[C@@H](O)[C@](C)(CO)[C@@H]1CC[C@@]1(C)c3cocc3CC[C@H]21 [SPONGIADIOL] |  |  |  |  |  |  |  |  | IC50 [12]: 0.5 µg/mL (≈ 1.5 µM); IC50 [13]: 0.25 µg/mL (≈ 0.752 µM)
CO[C@H]1CC[C@]2(C)[C@H]3CCc4cocc4[C@]3(C)CC[C@H]2[C@@H]1C | 36 | 15 µg/mL | 28 | 36 | 17.9 (≈ 59.2 µM) | 10.4 (≈ 34.5 µM) | 13.6 (≈ 44.9 µM) | 13.3 (≈ 44 µM) | CC100 [11]: 18 µg/mL
COC(=O)[C@@H]1CC[C@@H]2[C@@]3(C)CCCC(C)(C)[C@@H]3CC[C@]23C(O)OC[C@H]13 (stereo partly drawn) | 30 | inactive | 30 | > 120 | > 120 | 21.8 (≈ 62.3 µM) | 37.6 (≈ 107 µM) | 24.5 (≈ 69.9 µM) | CC100 [11]: 60 µg/mL
CC(=O)O[C@H]1C=C2C(=O)OC[C@@]2(O)[C@]2(C)[C@@H](OC(C)=O)C[C@H]3C(C)(C)CCC[C@]3(C)[C@@H]12 [DORISENONE A] |  |  |  |  |  |  |  |  | IC50 [14]: 0.22 µg/mL (≈ 0.506 µM); IC50 [15]: 0.21 µg/mL (≈ 0.483 µM)
Nc1nc2c(ncn2COCCO)c(=O)[nH]1 [ACYCLOVIR] |  | 6 µg/mL | > 600 |  |  |  |  |  | 

— ChEMBL document CHEMBL1159320, “Cytotoxic effect (on tumor cells) and in vitro antiviral activity against herpes simplex virus of synthetic spongiane diterpenes” (J Nat Prod, 2002)
